Measurements reported in patent US5461061A, “Centrally acting 6,7,8,9-tetrahydro-3H-benz(E)indole heterocyclics” (priority 1993, dated 1995).
Counter-ions that a name gives are not always drawn. Like-named read-outs stand apart in the source and are kept apart here.

What was measured:
[1] = biological target: noradrenaline (NA) (α2) receptor; assay: In vitro binding, brain noradrenaline alpha2 receptor sites; set-up: species or system rat; settings: non-pretreated rats
[2] = system: motor activity / gross behavior (DA or 5-HT behavioral syndrome); assay: Motor activity and gross behavior in reserpine-pretreated rats; type: in vivo, rat
Source text: Antagonism of the reserpine-induced "neuroleptic syndrome" in the rat (gross behavior)
Depletion of the monoamine stores with reserpine brings about a "neuroleptic syndrome" characterized by hypomotility, catalepsy, muscle rigidity, hunch-backed posture as well as a number of other central and peripheral signs of monoamine depletion. The whole or parts of this syndrome can be reversed by the administration of drugs that stimulate dopamine or 5-HT receptors directly or indirectly.
Stimulation of the dopamine receptors, with apomorphine for example, gives rise to both locomotion and stereotyped behavior such as sniffing, gnawing and jumping. On the other hand, stimulation of the 5-HT receptors, with 5-hydroxytryptophan (5-HTP) combined with MAO-inhibitors for example, gives rise to a very different behavior.
(§1) Rats (150-300 g) pretreated with reserpine (5 mg/kg, 18 hours before) were given the test compounds. Gross behavioral observations (changes in motility, hindleg abduction, etc.) were made. Subsequent administration of NSD 1015, decapitation, brain dissection (corpora striata, the limbic forebrain and the remaining hemispheral portions (mainly cortex) or rat brain), homogenization, centrifugation, ion-exchange chromatography and spectrofluorimetric measurements (all as described in detail by Wikstrom, et al., M. Med. Chem., 21, 864-867, 1978 and reference cited therein), or by HPLC/EC, gave the actual […] and 5-HTP levels. Several doses (n=4-6) were tested for each compound and brain area. The dose of a compound giving 50% of the maximal reduction of the 5-HTP level in the rat brain part was then estimated.
(§2) "+" indicates a motoric activation of the animals.

[3] = system: central 5-HT receptor (5-HTP accumulation in the limbic forebrain); assay: In vivo rat brain tryptophan hydroxylation (5-HTP accumulation, limbic forebrain) after reserpine pretreatment and NSD 1015; settings: reserpine-pretreated rats, read-out: 5-HTP ED50 (limb)
Description: (§3) In vivo determination of a rat brain tyrosine and tryptophan hydroxylation after reserpine pretreatment (biochemically monitored dopamine and 5-HT receptor activity).
(§4) The compounds under evaluation were tested biochemically for central dopamine and 5-HT receptor (pre- and/or post-synaptic) stimulating activity. The concept of this biochemical screening method is that a dopamine or 5-HT-receptor agonist will stimulate the receptor and through regulatory feedback systems effect a decline in tyrosine or tryptophan hydroxylating activity, respectively, and a subsequent reduction in the synthesis rate for dopamine and 5-HT in the presynaptic neuron. Dopa and 5-HTP formation, as determined after in vivo inhibition of the aromatic L-amino acid decarboxylase with NSD 1015 (3-hydroxybenzylhydrazine hydrochloride) are taken as indirect measures of dopamine and 5-HT synthesis rates, respectively as described by Wikstrom et al., J. Med. Chem., 27, 1030, 1984.
as §1, §2

dopamine receptors = settings: cited from earlier work
5-HT1A sites = settings: 3H-8-OH-DPAT, rat brain homogenates; cited from earlier work
5-HT1A = settings: cited from earlier work
[4] = system: central dopamine receptor (DOPA accumulation in the striatum); assay: In vivo rat brain tyrosine hydroxylation (DOPA accumulation, striatum) after reserpine pretreatment and NSD 1015; settings: sc, reserpine-pretreated rats, bracket = highest dose tested, read-out: Dopa ED50 (stri)
Description: as §3, §4
Rats (150-300 g) pretreated with reserpine (5 mg/kg, 18 hours before) were given the test compounds. Gross behavioral observations (changes in motility, hindleg abduction, etc.) were made. […]

[5] = Blood pressure, heart rate and rectal temperature in awake spontaneously hypertensive rats (SHR); type: in vivo, rat (spontaneously hypertensive; settings: for Δtemp max: rectal; for bioavailability: rat, in vivo
Description: (§5) The male spontaneously hypertensive rats (SHR), or normotensive Sprague-Dawley rats # were implanted wit catheters in the arteria carotis and vena jugularis. The blood pressure (BP), heart rate (HR) and rectal temperature were recorded 24 hours later in the awake rat after per oral (p.o.) or intravenous *i.v.) administration of test drugs. Recording time was at least 90 minutes. Shown are the maximal effects during the 90 min recording period expressed as the deviation from baseline values (SHR:BP; 174±6 mmHG, HR; 366±10 beats/min, RT; 38.7±0.15 C and normotensives: BP; 111±3 mmHG, HR; 369±15 beats/min, RT; 38.7±0.23 C, means ±SEM, n=7) (means ±SEM, n=3-4). In case of a biphasic response (heart rate) during the 90 min, both maximal and minimal levels are shown period. The bioavailability calculations were based on the areas under the curves after po and iv administration.
(§6) *denotes statistical significant difference (p<0.05, or less) compared to saline treated controls (ANOVA followed by Fischer's test).

[6] = Stability remark on isolated product; type: physicochemical
central DA receptor = settings: cited from earlier work
[7] = Blood pressure, heart rate and rectal temperature in awake normotensive rats (#); type: in vivo, rat (normotensive Sprague-Dawley); settings: 0.2 μmol/kg i.v.
Description: as §5, §6

[8] = sc, bracket = highest dose tested
[9] = 2.0 μmol/kg i.v., (±) 13a / (±) 13b
[10] = 2.0 μmol/kg i.v., second printed (±) 13a line (biphasic, maximal level) / first printed (±) 13b line
[11] = 10.0 μmol/kg i.v., first printed (±) 13a line, no # printed
[12] = 10.0 μmol/kg i.v., second printed (±) 13a line
[13] = 10.0 μmol/kg p.o., (±) 13a (biphasic, maximal level) / first printed (±) 13b line
[14] = 10.0 μmol/kg p.o., (±) 13a / first (±) 13b

Which IC50 [1] does the source give for `CN(C)[C@@H]1CCc2ccc3[nH]cc(C=O)c3c2C1` [(+)-13a, (+)-1-formyl-6,7,8,9-tetrahydro-N,N-dimethyl-3H-benz(e) indole-8-amine] here?
The IC50 was 0.14 µM.

And the “Mot. act. (+/-)” value ([2]; sc)?
Its value is “+5-HT”.

And the ED50 [3, 8]?
The ED50 was 1 µmol/kg.

Which dopamine receptor antagonism (dopamine receptors) does the source give for `CC1(C)CC(=O)N(CCCCN2CCN(c3ncccn3)CC2)C(=O)C1` [gepirone] here?
Its dopamine receptor antagonism is “has dopamine antagonist properties”.

What does the source list for `CCCN(CCC)C1COc2ccc3[nH]cc(C=O)c3c2C1` (racemic) [(±)-22, 1-formyl-8-N,N-dipropylamino-8,9-dihydro-2H-pyrano-(3,2-e)indole]?
Mot. act. (+/-) ([2]; sc): +5-HT; ED50 [3, 8]: 0.4 µmol/kg

Which 5-HT1A binding affinity (5-HT1A sites) does the source give for `CN(C)C1CCc2ccc3[nH]ccc3c2C1` (racemic) [6,7,8,9-tetrahydro-N,N-dimethyl-3H-benz(e)indole-8-amine] here?
The 5-HT1A binding affinity was “high affinity”.

And the “5-HT1A agonist properties in vivo” value (5-HT1A)?
The value was “exhibits 5-HT1A agonist properties in vivo”.

Which dopamine receptor antagonism (dopamine receptors) does the source give for `O=C1CC2(CCCC2)CC(=O)N1CCCCN1CCN(c2ncccn2)CC1` [Buspirone hydrochloride] here?
Its dopamine receptor antagonism is “antagonizes dopamine receptors at the same dose it stimulates 5-HT1A receptors”.

What does the source list for `CCCN(CCC)C1COc2ccc3[nH]ccc3c2C1` (racemic) [(±)-21, 8-N,N-dipropylamino-8,9-dihydro-2H-pyrano-(3,2-e)-indol]?
ED50 [4]: 1 µmol/kg; Mot. act. (+/-) ([2]; sc): +DA; ED50 [3, 8]: 3.1 µmol/kg

Which ΔBP max ([5]; 2.0 μmol/kg i.v., (±) 13a) does the source give for `CN(C)C1CCc2ccc3[nH]cc(C=O)c3c2C1` (racemic) [(±)-13a, 1-Formyl-6,7,8,9-tetrahydro-N,N-dimethyl-3H-benz(e)indole-8-amine] here?
Its ΔBP max is -12 ± 4 mm Hg.

What about the ΔHR max ([5]; 2.0 μmol/kg i.v., (±) 13a) of the same molecule?
Its ΔHR max is “+35 ± 34 beats/min”.

And the “ΔHR max (minimal level of biphasic response)” value ([5]; 2.0 μmol/kg i.v., (±) 13a)?
The value was -33 ± 23 beats/min.

What about the “duration ΔBP” value [5, 9] of the same molecule?
Its value is 150 min.

What about the ΔBP max [5, 9] of the same molecule?
The ΔBP max was -60 ± 5 mm Hg.

What about the Δtemp max [5, 9] of the same molecule?
Its Δtemp max is -0.2 ± 0.65 °C.

What about the Δtemp max ([5]; 2.0 μmol/kg i.v., (±) 13a) of the same molecule?
The Δtemp max was -0.2 ± 0.40 °C.

What about the ΔHR max [5, 10] of the same molecule?
Its ΔHR max is “+55 ± 14 beats/min”.

What about the ΔBP max ([5]; 2.0 μmol/kg p.o.) of the same molecule?
Its ΔBP max is -23 ± 2 mm Hg.

What about the ΔHR max ([5]; 2.0 μmol/kg p.o.) of the same molecule?
The ΔHR max was “+37 ± 44 beats/min”.

And the Δtemp max ([5]; 2.0 μmol/kg p.o.)?
Its Δtemp max is “+1.2 ± 0 °C”.

What about the ΔHR max ([5]; 10.0 μmol/kg i.v., (±) 13a, biphasic, maximal level) of the same molecule?
Its ΔHR max is “+87 ± 18 beats/min”.

What about the ΔBP max [5, 11] of the same molecule?
The ΔBP max was -3 ± 1 mm Hg.

And the ΔHR max [5, 11]?
Its ΔHR max is “+70 ± 47 beats/min”.

And the Δtemp max [5, 11]?
The Δtemp max was -1.0 ± 0.15 °C.

And the “duration ΔBP” value [5, 12]?
The value was > 90 min.

What about the ΔBP max [5, 12] of the same molecule?
Its ΔBP max is -57 ± 4 mm Hg.

What about the “ΔHR max (minimal level of biphasic response)” value [5, 12] of the same molecule?
Its value is -37 ± 3 beats/min.

And the Δtemp max [5, 12]?
The Δtemp max was -0.7 ± 0.33 °C.

And the “ΔHR max (minimal level of biphasic response)” value ([5]; 10.0 μmol/kg p.o.)?
Its value is -39 ± 18 beats/min.

What about the ΔHR max [5, 13] of the same molecule?
The ΔHR max was “+24 ± 43 beats/min”.

What about the “duration ΔBP” value [5, 14] of the same molecule?
Its value is 75 min.

And the ΔBP max [5, 14]?
The ΔBP max was -43 ± 22 mm Hg.

What about the Δtemp max [5, 14] of the same molecule?
Its Δtemp max is “+0.7 ± 0.32 °C”.

What about the bioavailability ([5]; 10 umol/kg, 10.0 μmol/kg p.o., from areas under the curves after po and iv administration, read-out: Bioavail) of the same molecule?
Its bioavailability is 48%.

What about the “Mot. act. (+/-)” value ([2]; po) of the same molecule?
The value was “(+)5-HT”.

And the “Mot. act. (+/-)” value ([2]; sc)?
The value was “(+)5-HT”.

What about the ED50 ([3]; po) of the same molecule?
Its ED50 is 7 µmol/kg.

What about the ED50 [3, 8] of the same molecule?
Its ED50 is 4 µmol/kg.

What does the source list for `CCCN(CCC)C1CCc2ccc3[nH]ccc3c2C1` (racemic) [(±)-12b, 6,7,8,9-tetrahydro-N,N-dipropyl-3H-benz(e)indole-8-amine]?
ED50 [4]: 0.28 µmol/kg; Mot. act. (+/-) ([2]; sc): DA + 5-HT; ED50 [3, 8]: 0.1 µmol/kg

With `CN(C)C1CCc2ccc3[nH]cc(Br)c3c2C1` (stereo not drawn) [Example 12, 1-Bromo-6,7,8,9-tetrahydro-N,N-dimethyl-8-amino-3H-benz[e]indole] as the molecule, how does the “stability of the product” value [6] read?
The value was “unstable”.

Which results are given for `CCCN(CCC)C1CCc2ccc3[nH]cc(C=O)c3c2C1` (racemic) [(±)-13b, 1-formyl-6,7,8,9-tetrahydro-N,N-dipropyl-3H-benz(e)indole-8-amine]?
duration ΔBP [5, 9]: 90 min; ΔBP max [5, 9]: -35 ± 3 mm Hg; Δtemp max [5, 9]: -1.5 ± 0.3 °C; ΔBP max ([5]; 2.0 μmol/kg i.v., (±) 13b): +14 ± 1 mm Hg; ΔHR max ([5]; 2.0 μmol/kg i.v., (±) 13b): -70 ± 15 beats/min; Δtemp max ([5]; 2.0 μmol/kg i.v., (±) 13b): -1.6 ± 0.2 °C; ΔHR max [5, 10]: +110 ± 10 beats/min; ΔHR max [5, 13]: +78 ± 11 beats/min; duration ΔBP [5, 14]: > 120 min; ΔBP max [5, 14]: -55 ± 5 mm Hg; Δtemp max [5, 14]: -1.0 ± 0.3 °C; duration ΔBP ([5]; 10.0 μmol/kg p.o., (±) 13b): 60 min; ΔBP max ([5]; 10.0 μmol/kg p.o., (±) 13b): +28 ± 6 mm Hg; ΔHR max ([5]; 10.0 μmol/kg p.o., (±) 13b): +70 ± 30 beats/min; Δtemp max ([5]; 10.0 μmol/kg p.o., (±) 13b): -0.8 ± 0.4 °C; bioavailability ([5]; po): 36%; IC50 [1]: 3.7 µM; Mot. act. (+/-) ([2]; sc): +5-HT; ED50 [3, 8]: 0.06 µmol/kg

Which dopaminergic activity (central DA receptor) does the source give for `CCCN(CCC)C1CCc2cc3cc[nH]c3cc2C1` (stereo not drawn) [5,6,7,8-N,N-di-n-propyl-1H-benz(f)indole-7-amine] here?
Its dopaminergic activity is “dopaminergically inactive”.

With `CN(C)[C@@H]1CCc2ccc3[nH]ccc3c2C1` [R-6,7,8,9-tetrahydro-N,N-dimethyl-3H-benz(e)indole-8-amine] as the molecule, how does the 5-HT1A binding affinity (5-HT1A sites) read?
Its 5-HT1A binding affinity is “high affinity”.

With `CCCN(CCC)C1CCc2cccc(O)c2C1` (racemic) [Compound 8-OH-DPAT, reference compound] as the molecule, how does the ΔBP max [7] read?
Its ΔBP max is -12 ± 6 mm Hg.

And the ΔHR max [7]?
The ΔHR max was -83 ± 16 beats/min.

What about the Δtemp max ([7]; rectal) of the same molecule?
Its Δtemp max is -1.5 ± 0.27 °C.

What about the “Mot. act. (+/-)” value ([2]; sc) of the same molecule?
The value was “++5-HT”.

And the ED50 ([3]; po)?
Its ED50 is 3 µmol/kg.

And the ED50 [3, 8]?
The ED50 was 0.048 µmol/kg.
